# Entries after “also recorded” stand apart in the source; their conditions may differ.
# Experiments:
# auditory network = experiment: Association between human milk HMOs and brain functional network connection strength (rsfMRI), auditory network; format: in vivo, typically developing infants (human); conditions: A-tetra+ group; infants 0-20 months; human milk HMO level; quantile regression of 25th, 50th, 75th percentiles of CS; across all quantiles
# Procedure: (§1) In this study, we leveraged the UNC/UMN Baby Connectome Project (BCP) published in Neuroimage 2019: Vol 185: 891-905, aiming to longitudinally characterize early brain development, where typically developing children from 0-5 years of age were enrolled, longitudinal resting functional MR imaging (rsfMRI) was administered at each visit. The BCP study was further supplemented by collecting breast milk samples from the mothers whose children were breast-fed at the time of study visit, to allow the determination of potential associations between HMOs and early brain functional development using rsfMRI.
# (§2) 153 rsfMRI scans from 91 typically developing infants (0-20 months old) were obtained. Human milk (HM) samples were obtained from the mothers of the participants at each imaging visit and analyzed for HMOs. Brain functional network connection strengths (CS), which have been implicated to reflect brain functional maturation during early brain development, were obtained for the visual, default mode (DMN), sensorimotor, and auditory networks. Age effects for CS and HMOs were removed. Multivariate quantile regression of 25th, 50th, and 75th percentiles of CS with mixed effect was used to examine associations between HMOs and CS for all infants, and stratified by infants who received HM with detectable and undetectable A-tetra (A-tetra+and A-tetra−). […]
# visual network = experiment: Association between human milk HMOs and brain functional network connection strength (rsfMRI), visual network; format: in vivo, typically developing infants (human); conditions: A-tetra+ group; infants 0-20 months; human milk HMO level; quantile regression of 25th, 50th, 75th percentiles of CS; across all quantiles
# Procedure: as §1, §2
smiles,measurement,setting,value
"CC(=O)N[C@H]1[C@H]([C@H](O)[C@H](O)CO)O[C@@](OC[C@H]2O[C@@H](O[C@H]3[C@H](O)[C@@H](O)[C@H](O)O[C@@H]3CO)[C@H](O)[C@@H](O)[C@H]2O)(C(=O)O)C[C@@H]1O [6′-SL, 6′-sialyllactose]","association between 6′-SL and auditory function (auditory resting functional networks, connection strength)",auditory network,positive associations; also recorded: significant positive association
same,"association between 6′-SL and visual function (vision resting functional networks, connection strength)",visual network,positive associations; also recorded: significant positive association

# — patent publication US20260150874A1, “HUMAN MILK OLIGOSACCHARIDES” (SOCIETE DES PRODUITS NESTLE S.A., priority 2021, published 2026)
